Measurements from patent US20230212571A1, “COMPOSITIONS AND METHODS FOR DELIVERING POLYNUCLEOTIDES” (NeOnc Technologies, Inc., priority 2020, published 2023).

Legend:
[1] = test system: BMP4 3′UTR; assay: BMP4 3′UTR luciferase reporter in ECs; assay type: cell-based, human; conditions: vs untreated or scramble microRNA, n=6
Experimental: Plasmid constructs pcDNA3-ALK2^WT (Addgene #80870) and pcDNA3-ALK2^Q207D (Addgene #80871) were a gift from Aristidis Moustakas^7. (Meyer B, Schaller C, Frenkel C, Ebeling B, Schramm J. Distributions of local oxygen saturation and its response to changes of mean arterial blood pressure in the cerebral cortex adjacent to arteriovenous malformations. Stroke. 1999; 30(12):2623-2630) 10^4 AVM-BEC were seeded 24 h before transfection. The plasmid vector containing the 3′ untranslated region (3′UTR) of human BMP4, pRP [Exp]-Puro-CMV>Luciferase:{hBMP4_3′UTR}, was constructed and packaged by VectorBuilder. The vector ID is VB200205-1078zdv, which can be used to retrieve detailed information about the vector on vectorbuilder.com. Transient transfections were performed with Lipofectamine RNAiMax (Thermo Fisher Scientific) according to the manufacturer's instructions. After 4 h, medium was replaced by fresh medium containing microRNA.
For the experiments regarding the direct binding of miR-18a to BMP4 (information about the plasmid was included in Methods), the luciferase activity of the hBMP4 3′UTR was read in a Varioskan™ LUX multimode microplate reader (Thermo Fisher Scientific).

[2] = test system: AVM-BEC; assay: Human Notch Signaling Pathway PCR array in AVM-BEC; assay type: cell-based
Experimental: (§1) MiR-18a (hsa-miR-18a-5p, 40 nM, Dharmacon) or a scramble microRNA (40 nM, Dharmacon) in nuclease-free water was added with argonaute 2 (Ago-2, 0.4 nM, Abcam) as the microRNA carrier and stabilizer^9. (Ferreira R, Santos T, Amar A, et al. Argonaute-2 promotes miR-18a entry in human brain endothelial cells. J Am Heart Assoc. 2014; 3(3):e000968). No transfection reagent was used with miR-18a or scramble microRNA treatments. Recombinant human TSP-1 (R&D Systems) stock solution was prepared in PBS and further diluted in culture medium to be used at a final concentration of 1000 ng/mL. Cells were treated during 24 h for mRNA and 48 h for protein expression studies. NEO100 (NeOnc Technologies) stock was prepared in DMSO and used immediately or stored at −20° C.
The extraction and analysis of total mRNA and microRNAs were described^9,13. (Ferreira R, Santos T, Amar A, et al. Argonaute-2 promotes miR-18a entry in human brain endothelial cells. J Am Heart Assoc. 2014; 3(3):e000968) (Marín-Ramos N I, Jhaveri N, Thein T Z, Fayngor R A, Chen T C, Hofman F M. NEO212, a conjugate of temozolomide and perillyl alcohol, blocks the endothelial-to-mesenchymal transition in tumor-associated brain endothelial cells in glioblastoma. Cancer Lett. 2018; 442:170-180). The Human Notch Signaling Pathway RT^2 Profiler PCR Array (Qiagen) was used to analyze the expression of 84 genes related to Notch signaling. For mRNA studies, […] (B2M) was measured for sample normalization. The primer sequences were included in Table 2. For microRNA analysis, RNU44 and U6 snRNA TaqMan microRNA Control Assays were used for normalization of human and mice samples, respectively.

[3] = Pharmacokinetic study of miR-18a in serum and brain by RT-qPCR; assay type: in vivo, C57BL/6 mice
Excerpt: All animal protocols were approved by the USC's Institutional Animal Care and Use Committee (IACUC) and strictly adhered to. MiR-18a was co-administered with Ago-2 (0.0008 nmol/mouse) to increase stability and cellular uptake^9 (Ferreira R, Santos T, Amar A, et al. Argonaute-2 promotes miR-18a entry in human brain endothelial cells. J Am Heart Assoc. 2014; 3(3):e000968). (FIG. 9). Details about randomization, blinding, group size and inclusion/exclusion criteria have been included in Methods.
For pharmacokinetic measurements, 0.8 nmol/mouse of miR-18a were administered IV or IN to C57BL/6 mice. At the indicated time points, mice were euthanized, and the serum and brains were collected and flash-frozen in liquid nitrogen (n=6 per time-point and condition). MicroRNAs were isolated using the mirVana™ miRNA Isolation Kit and measured by RT-qPCR as described above.

[4] = test system: BEC; assay: RT-qPCR mRNA expression in control BEC; assay type: cell-based, human
Excerpt: Human surgical specimens were obtained following written informed consent from patients in accordance with Declaration of Helsinki guidelines and the Institutional Review Board (HS-04B053), at Keck School of Medicine, USC. AVM-BECs were isolated from brain tissues of patients who underwent microsurgical AVM resection. Control BECs were isolated from the structurally normal […] of patients who underwent temporal lobectomy for intractable epilepsy. Endothelial cell (EC) isolation and culture were described^5,9. (Stapleton C J, Armstrong D L, Zidovetzki R, Liu C Y, Giannotta S L, Hofman F M. Thrombospondin-1 modulates the angiogenic phenotype of human cerebral arteriovenous malformation endothelial cells. Neurosurgery. 2011; 68(5):1342-1353) (Ferreira R, Santos T, Amar A, et al. Argonaute-2 promotes miR-18a entry in human brain endothelial cells. J Am Heart Assoc. 2014; 3(3):e000968) ECs were only used between passages 3-5. Experiments were performed under shear flow conditions (12 dyn/cm^2) to reproduce arterial flow^6. (Ferreira R, Santos T, Amar A, et al. MicroRNA-18a improves human cerebral arteriovenous malformation endothelial cell function. Stroke. 2014; 45(1):293-297). For hypoxic experiments, cells were cultured in a Galaxy 48R (Eppendorf) incubator at 3% O2. MicroRNAs were co-administered with Ago-2 to increase the cellular uptake of miR-18a^9 (Ferreira R, Santos T, Amar A, et al. Argonaute-2 promotes miR-18a entry in human brain endothelial cells. J Am Heart Assoc. 2014; 3(3):e000968) (FIG. 9). Methods regarding cell treatments and transfections were included in Data.
as §1
The extraction and analysis of total mRNA and microRNAs were described^9,13. […] For mRNA studies, 02-Microglobulin (B2M) was measured for sample normalization. […]

With “hsa-miR-18a-5p (UAGGUGCAUCUAGUGCAGAUAG; chemistry not given here; listed as Homo sapiens) [small non-coding RNA molecule involved in post-transcriptional regulation of gene expression; Dharmacon]” the “BMP4-3′-UTR-Luc activity” value [1] was “significantly (P<0.001) decreased”, the “ADAM10 mRNA expression” value ([2]; FIG. 13) was “downregulated” and the Notch-related genes downregulated ([2]; among the affected genes) was 50 genes. For the same substance, the “Notch-related genes affected (fold change>2)” value ([2]; of 84 Notch-related genes) was 68 genes, the “miR-18a levels compared to scramble microRNA-treated mice” value ([3]; 0.8 nmol/mouse IV or IN, C57BL/6 mice) was “approximately 40 times” and the “retention of miR-18a, IN compared with IV” value ([3]; 0.8 nmol/mouse, IN administration) was “longer retention times”. For the same substance, the “time of highest levels of miR-18a in serum and brains, IV compared with IN” value ([3]; 0.8 nmol/mouse, IV administration) was “earlier”, the “amount of microRNA in the brain, times the basal levels of miR-18a” value ([3]; IN administration, 0.8 nmol/mouse) was “approximately 40 times” and the “time required to reach the peak levels” value ([3]; IN administration, brain) was 2 h. The “ALK1 mRNA expression” value ([4]; P=0.0482) was “decreased”, the “BMP4, ALK2, ALK5 and MGP mRNA expression” value ([4]; P>0.05) was “No significant differences” and the HIF-1α expression ([4]; hypoxia 3% O2) was “remained unaltered”. The HIF-1α expression ([4]; normoxia, P>0.9999) was “without affecting BEC”.
